Source: patent US4882313A, “Carboxamide derivatives of glycopeptides” (SmithKline Beckman Corporation, priority 1987, dated 1989)

Columns and labels:
Assay in all cases: standard microtiter assay, minimum inhibitory concentration
Format in all cases: cell-based
[1] = tested on: Staphylococcus haemolyticus; details: Test Organism 7, Staphylococcus haemolyticus
Excerpt: (§1) Representative results of standard microtiter assays are reported in Table 1 which follows, as the minimum inhibitory concentration of antibiotic (mg/ml). In Table 1, test organisms 1-5 were different strains of Staphylococcus aureus; 6, 8, 11, 13 and 14 were different strains of Staphylococcus epidermidis; 7 was a Staphylococcus haemolyticus; 9 and 10 were different strains of Streptococcus faecalis; and 12 was a Staphylococcus saprophyticus.

[2] = tested on: Staphylococcus aureus; details: for minimum inhibitory concentration of antibiotic, Test Organism 1: Test Organism 1, strain of Staphylococcus aureus; for minimum inhibitory concentration of antibiotic, Test Organism 2: Test Organism 2, strain of Staphylococcus aureus; for minimum inhibitory concentration of antibiotic, Test Organism 3: Test Organism 3, strain of Staphylococcus aureus; for minimum inhibitory concentration of antibiotic, Test Organism 4: Test Organism 4, strain of Staphylococcus aureus; for minimum inhibitory concentration of antibiotic, Test Organism 5: Test Organism 5, strain of Staphylococcus aureus
Excerpt: as §1

[3] = tested on: Streptococcus faecalis; details: for minimum inhibitory concentration of antibiotic, Test Organism 9: Test Organism 9, strain of Streptococcus faecalis; for minimum inhibitory concentration of antibiotic, Test Organism 10: Test Organism 10, strain of Streptococcus faecalis
Excerpt: as §1

[4] = tested on: Staphylococcus saprophyticus; details: Test Organism 12, Staphylococcus saprophyticus
Excerpt: as §1

[5] = tested on: Staphylococcus epidermidis; design: minimum inhibitory concentration of antibiotic, Test Organism 8: unit not given here; details: for minimum inhibitory concentration of antibiotic, Test Organism 6: Test Organism 6, strain of Staphylococcus epidermidis; for minimum inhibitory concentration of antibiotic, Test Organism 8: Test Organism 8, strain of Staphylococcus epidermidis; for minimum inhibitory concentration of antibiotic, Test Organism 11: Test Organism 11, strain of Staphylococcus epidermidis; for minimum inhibitory concentration of antibiotic, Test Organism 13: Test Organism 13, strain of Staphylococcus epidermidis; for minimum inhibitory concentration of antibiotic, Test Organism 14: Test Organism 14, strain of Staphylococcus epidermidis
Excerpt: as §1

Row | Compound | minimum inhibitory concentration of antibiotic, Test Organism 7 [1] | minimum inhibitory concentration of antibiotic, Test Organism 1 [2] | minimum inhibitory concentration of antibiotic, Test Organism 2 [2] | minimum inhibitory concentration of antibiotic, Test Organism 3 [2] | minimum inhibitory concentration of antibiotic, Test Organism 4 [2] | minimum inhibitory concentration of antibiotic, Test Organism 5 [2] | minimum inhibitory concentration of antibiotic, Test Organism 9 [3] | minimum inhibitory concentration of antibiotic, Test Organism 10 [3] | minimum inhibitory concentration of antibiotic, Test Organism 12 [4] | minimum inhibitory concentration of antibiotic, Test Organism 6 [5] | minimum inhibitory concentration of antibiotic, Test Organism 8 [5] | minimum inhibitory concentration of antibiotic, Test Organism 11 [5] | minimum inhibitory concentration of antibiotic, Test Organism 13 [5] | minimum inhibitory concentration of antibiotic, Test Organism 14 [5]
1 | CNC1C(=O)NC2C(=O)NC(C(=O)NC3C(=O)NC4C(=O)NC(C(=O)NC(C(=O)O)c5cc(O)cc(O)c5-c5cc4ccc5O)C(O)c4cc(Cl)c(c(Cl)c4)Oc4cc3cc(c4O)Oc3ccc(cc3Cl)C2O)c2cc(cc(O)c2Cl)Oc2cc1ccc2O (stereo not drawn) [Compound 2a, Ardacin aglycone, reference compound] | 6300 µg/mL | 800 µg/mL | 800 µg/mL | 400 µg/mL | 400 µg/mL | 800 µg/mL | 800 µg/mL | 800 µg/mL | 1600 µg/mL | 800 µg/mL | 3.1 | 1600 µg/mL | 1800 µg/mL | 800 µg/mL
2 | Ardacin A [Compound 2i, reference compound] | 25000 µg/mL | 6300 µg/mL | 3100 µg/mL | 800 µg/mL | > 6300 µg/mL | 3100 µg/mL | 800 µg/mL | 800 µg/mL | 12500 µg/mL | 50000 µg/mL | 25 | 25000 µg/mL | 6300 µg/mL | 5100 µg/mL
3 | CNC1C(=O)NC2C(=O)NC(C(=O)NC3C(=O)NC4C(=O)NC(C(=O)NC(C(=O)NCCN)c5cc(O)cc(O)c5-c5cc4ccc5O)C(O)c4cc(Cl)c(c(Cl)c4)Oc4cc3cc(c4O)Oc3ccc(cc3Cl)C2O)c2cc(cc(O)c2Cl)Oc2cc1ccc2O (stereo not drawn) [Compound 2e, Ardacin aglycone-(2-aminoethyl amide)] | 50 µg/mL | 50 µg/mL | 50 µg/mL | 50 µg/mL | 200 µg/mL | 50 µg/mL | 50 µg/mL | 100 µg/mL | 50 µg/mL | 100 µg/mL | 0.1 | 100 µg/mL | 50 µg/mL | 50 µg/mL
4 | AAJ-271 C2 [Compound 2r, reference compound] | 12500 µg/mL | 800 µg/mL | 800 µg/mL | 200 µg/mL | 1600 µg/mL | 800 µg/mL | 200 µg/mL | 200 µg/mL | 1600 µg/mL | 25000 µg/mL | 12.5 | 25000 µg/mL | 6300 µg/mL | 3100 µg/mL
5 | CNC1C(=O)NC2C(=O)NC(C(=O)NC3C(=O)NC4C(=O)NC(C(=O)NC(C(=O)O)c5cc(O)cc(OC6OC(CO)C(O)C(O)C6O)c5-c5cc4ccc5O)C(O)c4cc(Cl)c(c(Cl)c4)Oc4cc3cc(c4O)Oc3ccc(cc3Cl)C2O)c2cc(cc(O)c2Cl)Oc2cc1ccc2O (stereo not drawn) [Compound 2b, Ardacin mannosylaglycone, reference compound] | 25000 µg/mL | 1600 µg/mL | 1600 µg/mL | 800 µg/mL | > 1600 µg/mL | 1600 µg/mL | 800 µg/mL | 800 µg/mL | 3100 µg/mL | 12500 µg/mL | 6.3 | 25000 µg/mL | 6300 µg/mL | –
6 | CN[C@H](CC(C)C)C(=O)N[C@H]1C(=O)N[C@@H](CC(N)=O)C(=O)N[C@H]2C(=O)N[C@H]3C(=O)N[C@H](C(=O)N[C@H](C(=O)O)c4cc(O)cc(O)c4-c4cc3ccc4O)[C@H](O)c3ccc(c(Cl)c3)Oc3cc2cc(c3O[C@@H]2O[C@H](CO)[C@@H](O)[C@H](O)[C@H]2O[C@H]2C[C@](C)(N)[C@H](O)[C@H](C)O2)Oc2ccc(cc2Cl)[C@H]1O [Vancomycin, reference compound] | 3100 µg/mL | 3100 µg/mL | 1600 µg/mL | 1600 µg/mL | > 3100 µg/mL | 1600 µg/mL | 3100 µg/mL | 3100 µg/mL | 3100 µg/mL | 3100 µg/mL | – | 3100 µg/mL | 3100 µg/mL | 3100 µg/mL
7 | CNC1C(=O)NC2C(=O)NC(C(=O)NC3C(=O)NC4C(=O)NC(C(=O)NC(C(=O)O)c5cc(O)cc(OC6OC(CO)C(O)C(O)C6O)c5-c5cc4ccc5O)C(O)c4ccc(c(Cl)c4)Oc4cc3cc(c4OC3OC(C(=O)O)C(O)C(O)C3NC(=O)CCCCCCCCC(C)C)Oc3ccc(cc3)C2O)c2cc(cc(O)c2Cl)Oc2cc1ccc2O (stereo not drawn) [Compound 2p, AAJ-271 C1, reference compound] | 6300 µg/mL | 400 µg/mL | 400 µg/mL | 200 µg/mL | 800 µg/mL | 400 µg/mL | 6300 µg/mL | 6300 µg/mL | 1600 µg/mL | 6300 µg/mL | 25 | 25000 µg/mL | 6300 µg/mL | 6300 µg/mL
